According to ChEMBL document CHEMBL4364276, “Discovery of 4-phenyl-2H-benzo[b][1,4]oxazin-3(4H)-one derivatives as potent and orally active PI3K/mTOR dual inhibitors” (Eur J Med Chem, 2019):

How the values were obtained:
[1] = biological target: DNA-dependent protein kinase catalytic subunit (Homo sapiens) (UniProt P78527); assay: Inhibition of human DNAPK at 100 nM using EPPLSQEAFADLWKK as substrate by [gamma-33P]-ATP assay
[2] = biological target: Serine/threonine-protein kinase pim-1 (Homo sapiens) (UniProt P11309); assay: Inhibition of human PIM1 at 100 nM using KKRNRTLTK as substrate by [gamma-33P]-ATP assay
[3] = biological target: Serine/threonine-protein kinase Nek9 (Homo sapiens) (UniProt Q8TD19); assay: Inhibition of human NEK9 at 100 nM using casein as substrate by [gamma-33P]-ATP assay
[4] = biological target: Dual specificity tyrosine-phosphorylation-regulated kinase 1B (Homo sapiens) (UniProt Q9Y463); assay: Inhibition of human DYRK1B at 100 nM using RRRFRPASPLRGPPK as substrate by [gamma-33P]-ATP assay
[5] = Inhibition of PI3K/Akt/mTOR signaling in human HeLa cells assessed as reduction in S6 phosphorylation incubated for 24 hrs by Western blot analysis; assay type: cell-based
[6] = biological target: Calcium/calmodulin-dependent protein kinase type II subunit beta (Homo sapiens) (UniProt Q13554); assay: Inhibition of human CAMK2B at 100 nM using KKALRRQETVDAL as substrate by [gamma-33P]-ATP assay
[7] = biological target: Serine/threonine-protein kinase N1 (Homo sapiens) (UniProt Q16512); assay: Inhibition of human PKN1 at 100 nM using KKLNRTLSVA as substrate by [gamma-33P]-ATP assay
[8] = biological target: Myosin light chain kinase family member 4 (Homo sapiens) (UniProt Q86YV6); assay: Inhibition of human MYLK4 at 100 nM using KKRPQRRYSNVF as substrate by [gamma-33P]-ATP assay
[9] = biological target: STE20/SPS1-related proline-alanine-rich protein kinase (Homo sapiens) (UniProt Q9UEW8); assay: Inhibition of human STK39 at 100 nM using MBP as substrate by [gamma-33P]-ATP assay
[10] = biological target: Serine/threonine-protein kinase DCLK1 (Homo sapiens) (UniProt O15075); assay: Inhibition of human DCAMKL1 at 100 nM using KKLNRTLSFAEPG as substrate by [gamma-33P]-ATP assay
HCT-116 = assay: Antiproliferative activity against human HCT116 cells assessed as reduction in cell viability incubated for 72 hrs by MTT assay; assay type: functional, cell-based; conditions: HCT-116, 72 h
MCF7 = assay: cells; conditions: Homo sapiens, MCF7, 72 h
[11] = biological target: Serine/threonine-protein kinase SIK3 (Homo sapiens) (UniProt Q9Y2K2); assay: Inhibition of human SIK3 at 100 nM using AMARAASAAALARRR as substrate by [gamma-33P]-ATP assay
[12] = biological target: NUAK family SNF1-like kinase 2 (Homo sapiens) (UniProt Q9H093); assay: Inhibition of human SNARK at 100 nM using KKKVSRSGLYRSPSMPENLNRPR as substrate by [gamma-33P]-ATP assay
[13] = biological target: Fibroblast growth factor receptor 3 (Homo sapiens) (UniProt P22607); assay: Inhibition of human FGFR3 at 100 nM using poly[Glu:Tyr] (4:1) as substrate by [gamma-33P]-ATP assay
[14] = biological target: Serine/threonine-protein kinase tousled-like 2 (Homo sapiens) (UniProt Q86UE8); assay: Inhibition of human TLK2 at 100 nM using casein as substrate by [gamma-33P]-ATP assay
[15] = biological target: Serine/threonine-protein kinase Nek2 (Homo sapiens) (UniProt P51955); assay: Inhibition of human NEK2 at 100 nM using MBP as substrate by [gamma-33P]-ATP assay
[16] = biological target: Mitogen-activated protein kinase 13 (Homo sapiens) (UniProt O15264); assay: Inhibition of human p38delta at 100 nM using MBP as substrate by [gamma-33P]-ATP assay
[17] = biological target: Tyrosine-protein kinase Lck (Homo sapiens) (UniProt P06239); assay: Inhibition of human LCK at 100 nM using poly[Glu:Tyr] (4:1) as substrate by [gamma-33P]-ATP assay
[18] = biological target: cGMP-dependent protein kinase 1 (Homo sapiens) (UniProt Q13976); assay: Inhibition of human PKG1beta at 100 nM using LRRASLG as substrate by [gamma-33P]-ATP assay
[19] = biological target: CDK1/Cyclin E (Homo sapiens) (UniProt P06493+P24864); assay: Inhibition of human CDK1/cyclinE at 100 nM using RB protein as substrate by [gamma-33P]-ATP assay; assay type: protein-complex assay
[20] = biological target: cGMP-dependent protein kinase 1 (Homo sapiens) (UniProt Q13976); assay: Inhibition of human PKG1alpha at 100 nM using LRRASLG as substrate by [gamma-33P]-ATP assay
[21] = biological target: CDK3/Cyclin-E2 (Homo sapiens) (UniProt O96020+Q00526); assay: Inhibition of human CDK3/cyclin-E2 at 100 nM using histone H1 as substrate by [gamma-33P]-ATP assay; assay type: protein-complex assay
[22] = biological target: Serine/threonine-protein kinase Nek8 (Homo sapiens) (UniProt Q86SG6); assay: Inhibition of human NEK8 at 100 nM using casein as substrate by [gamma-33P]-ATP assay
Homo sapiens = species on record: Homo sapiens; assay: Inhibition of human AMPK (A2/B2/G3) at 100 nM using HMRSAMSGLHLVKRR as substrate by [gamma-33P]-ATP assay
[23] = biological target: Tyrosine-protein kinase JAK1 (Homo sapiens) (UniProt P23458); assay: Inhibition of human JAK1 at 100 nM using poly[Glu:Tyr] (4:1) as substrate by [gamma-33P]-ATP assay
[24] = biological target: Tyrosine-protein kinase BTK (Homo sapiens) (UniProt Q06187); assay: Inhibition of human BTK at 100 nM using KVEKIGEGTYGVVYK as substrate by [gamma-33P]-ATP assay
[25] = biological target: Dual specificity testis-specific protein kinase 2 (Homo sapiens) (UniProt Q96S53); assay: Inhibition of human TESK2 at 100 nM using cofilin as substrate by [gamma-33P]-ATP assay
[26] = biological target: Tyrosine-protein kinase SYK (Homo sapiens) (UniProt P43405); assay: Inhibition of human SYK at 100 nM using poly[Glu:Tyr] (4:1) as substrate by [gamma-33P]-ATP assay
A549 = assay: cells; conditions: Homo sapiens, A549, 72 h
A-375 = assay: Antiproliferative activity against human A375 cells assessed as reduction in cell viability incubated for 72 hrs by MTT assay; assay type: functional, cell-based; conditions: A-375, 72 h
[27] = biological target: Maternal embryonic leucine zipper kinase (Homo sapiens) (UniProt Q14680); assay: Inhibition of human MELK at 100 nM using KKLNRTLSFAEPG as substrate by [gamma-33P]-ATP assay
[28] = biological target: Phosphorylase b kinase gamma catalytic chain, liver/testis isoform (Homo sapiens) (UniProt P15735); assay: Inhibition of human PHKgamma2 at 100 nM using MBP as substrate by [gamma-33P]-ATP assay

Chain of cGMP-dependent protein kinase 1 (Homo sapiens) (Q13976 whole entry): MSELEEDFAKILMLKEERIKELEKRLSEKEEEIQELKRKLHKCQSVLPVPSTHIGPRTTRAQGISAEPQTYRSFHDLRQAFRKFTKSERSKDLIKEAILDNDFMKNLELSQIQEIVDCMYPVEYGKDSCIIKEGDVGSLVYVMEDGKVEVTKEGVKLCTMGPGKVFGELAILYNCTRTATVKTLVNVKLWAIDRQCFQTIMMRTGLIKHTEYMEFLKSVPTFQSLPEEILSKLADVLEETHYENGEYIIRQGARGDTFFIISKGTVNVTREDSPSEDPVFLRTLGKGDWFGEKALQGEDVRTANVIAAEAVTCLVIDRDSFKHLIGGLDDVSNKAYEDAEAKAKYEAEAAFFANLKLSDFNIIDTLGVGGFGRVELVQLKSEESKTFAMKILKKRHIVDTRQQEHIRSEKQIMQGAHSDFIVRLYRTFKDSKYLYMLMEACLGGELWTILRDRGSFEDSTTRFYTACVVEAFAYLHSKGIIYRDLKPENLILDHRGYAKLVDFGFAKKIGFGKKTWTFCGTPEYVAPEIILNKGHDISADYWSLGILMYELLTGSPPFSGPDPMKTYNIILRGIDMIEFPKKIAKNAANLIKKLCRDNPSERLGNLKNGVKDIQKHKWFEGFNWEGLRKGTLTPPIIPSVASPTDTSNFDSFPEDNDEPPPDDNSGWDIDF
Chain of Serine/threonine-protein kinase N1 (Homo sapiens) (Q16512 2-942 limits assumed): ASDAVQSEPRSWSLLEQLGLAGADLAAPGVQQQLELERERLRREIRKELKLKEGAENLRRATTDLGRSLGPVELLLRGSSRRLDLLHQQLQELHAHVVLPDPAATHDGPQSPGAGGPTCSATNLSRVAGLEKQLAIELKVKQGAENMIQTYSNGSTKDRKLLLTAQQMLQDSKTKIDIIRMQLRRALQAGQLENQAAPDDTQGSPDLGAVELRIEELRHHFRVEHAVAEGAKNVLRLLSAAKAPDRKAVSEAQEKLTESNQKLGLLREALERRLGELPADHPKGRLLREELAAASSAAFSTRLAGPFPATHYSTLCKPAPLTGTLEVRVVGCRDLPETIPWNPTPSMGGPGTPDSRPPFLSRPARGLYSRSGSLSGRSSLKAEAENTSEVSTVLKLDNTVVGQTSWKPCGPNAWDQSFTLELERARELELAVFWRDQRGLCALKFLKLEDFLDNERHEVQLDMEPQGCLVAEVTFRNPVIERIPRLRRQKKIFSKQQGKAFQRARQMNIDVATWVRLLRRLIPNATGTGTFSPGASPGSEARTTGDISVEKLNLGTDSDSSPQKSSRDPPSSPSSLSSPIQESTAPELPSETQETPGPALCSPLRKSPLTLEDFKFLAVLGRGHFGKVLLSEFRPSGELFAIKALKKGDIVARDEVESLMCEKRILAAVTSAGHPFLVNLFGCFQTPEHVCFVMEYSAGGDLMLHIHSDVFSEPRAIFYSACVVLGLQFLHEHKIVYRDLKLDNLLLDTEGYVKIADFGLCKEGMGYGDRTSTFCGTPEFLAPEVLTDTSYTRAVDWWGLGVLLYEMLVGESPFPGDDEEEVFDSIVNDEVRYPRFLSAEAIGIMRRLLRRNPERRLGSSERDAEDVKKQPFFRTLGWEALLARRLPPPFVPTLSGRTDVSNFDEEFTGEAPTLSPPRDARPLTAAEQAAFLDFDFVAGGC
Chain of Serine/threonine-protein kinase Nek9 (Homo sapiens) (Q8TD19 whole entry): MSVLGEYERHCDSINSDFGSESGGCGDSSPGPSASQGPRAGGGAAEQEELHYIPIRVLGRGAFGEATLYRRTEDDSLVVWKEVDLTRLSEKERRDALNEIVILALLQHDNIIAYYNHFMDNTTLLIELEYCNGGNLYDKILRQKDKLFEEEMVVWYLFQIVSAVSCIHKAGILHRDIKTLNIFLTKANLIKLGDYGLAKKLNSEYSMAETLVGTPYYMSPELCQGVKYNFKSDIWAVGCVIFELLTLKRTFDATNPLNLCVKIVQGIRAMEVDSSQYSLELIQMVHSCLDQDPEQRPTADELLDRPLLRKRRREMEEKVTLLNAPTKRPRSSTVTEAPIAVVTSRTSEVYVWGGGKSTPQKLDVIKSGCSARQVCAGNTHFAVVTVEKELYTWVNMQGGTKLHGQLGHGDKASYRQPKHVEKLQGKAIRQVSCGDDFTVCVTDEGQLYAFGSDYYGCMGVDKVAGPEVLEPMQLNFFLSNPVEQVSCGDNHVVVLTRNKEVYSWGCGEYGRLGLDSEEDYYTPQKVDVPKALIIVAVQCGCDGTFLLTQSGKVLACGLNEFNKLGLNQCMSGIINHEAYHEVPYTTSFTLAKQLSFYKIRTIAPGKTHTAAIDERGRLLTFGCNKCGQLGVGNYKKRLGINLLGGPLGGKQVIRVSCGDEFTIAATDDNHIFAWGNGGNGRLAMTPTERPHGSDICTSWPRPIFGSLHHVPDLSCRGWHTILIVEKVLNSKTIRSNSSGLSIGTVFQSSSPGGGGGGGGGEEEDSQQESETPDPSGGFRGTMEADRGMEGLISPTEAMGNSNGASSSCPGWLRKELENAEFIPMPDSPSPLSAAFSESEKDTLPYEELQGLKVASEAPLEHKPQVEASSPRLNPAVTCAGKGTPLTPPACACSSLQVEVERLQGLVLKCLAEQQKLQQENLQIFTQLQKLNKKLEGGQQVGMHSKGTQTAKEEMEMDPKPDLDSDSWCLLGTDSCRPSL
Chain of Tyrosine-protein kinase JAK1 (Homo sapiens) (P23458 whole entry): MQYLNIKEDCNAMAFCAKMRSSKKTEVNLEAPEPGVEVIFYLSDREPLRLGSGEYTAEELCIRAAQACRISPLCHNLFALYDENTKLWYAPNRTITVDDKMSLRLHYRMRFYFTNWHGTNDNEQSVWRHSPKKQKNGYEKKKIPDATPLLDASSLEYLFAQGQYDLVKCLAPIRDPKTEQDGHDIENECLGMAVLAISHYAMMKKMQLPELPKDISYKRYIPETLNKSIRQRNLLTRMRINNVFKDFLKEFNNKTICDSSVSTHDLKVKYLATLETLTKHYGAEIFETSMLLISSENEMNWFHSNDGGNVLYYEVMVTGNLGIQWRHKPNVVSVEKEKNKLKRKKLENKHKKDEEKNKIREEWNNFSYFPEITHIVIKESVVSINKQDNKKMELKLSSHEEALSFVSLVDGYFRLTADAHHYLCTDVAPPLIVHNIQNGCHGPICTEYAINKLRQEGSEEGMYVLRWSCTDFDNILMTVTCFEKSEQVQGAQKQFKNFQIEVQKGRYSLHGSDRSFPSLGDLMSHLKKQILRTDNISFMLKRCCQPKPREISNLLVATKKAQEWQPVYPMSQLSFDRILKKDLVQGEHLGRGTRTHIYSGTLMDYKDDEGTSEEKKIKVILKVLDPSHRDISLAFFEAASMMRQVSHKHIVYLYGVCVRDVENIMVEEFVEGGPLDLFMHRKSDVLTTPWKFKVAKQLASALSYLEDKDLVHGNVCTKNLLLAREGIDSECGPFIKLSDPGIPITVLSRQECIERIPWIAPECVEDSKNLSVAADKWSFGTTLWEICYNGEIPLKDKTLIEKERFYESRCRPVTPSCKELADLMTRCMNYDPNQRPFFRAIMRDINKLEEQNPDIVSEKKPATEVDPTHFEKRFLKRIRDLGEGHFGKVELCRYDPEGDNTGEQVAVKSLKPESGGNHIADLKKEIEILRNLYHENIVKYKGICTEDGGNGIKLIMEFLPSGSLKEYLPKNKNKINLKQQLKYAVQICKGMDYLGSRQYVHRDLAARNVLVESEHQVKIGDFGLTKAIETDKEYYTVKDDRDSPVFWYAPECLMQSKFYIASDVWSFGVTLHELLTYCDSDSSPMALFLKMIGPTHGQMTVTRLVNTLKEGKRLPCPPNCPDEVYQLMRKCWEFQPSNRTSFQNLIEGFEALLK
Chain of CDK3/Cyclin-E2 (Homo sapiens) (O96020 whole entry, looked up): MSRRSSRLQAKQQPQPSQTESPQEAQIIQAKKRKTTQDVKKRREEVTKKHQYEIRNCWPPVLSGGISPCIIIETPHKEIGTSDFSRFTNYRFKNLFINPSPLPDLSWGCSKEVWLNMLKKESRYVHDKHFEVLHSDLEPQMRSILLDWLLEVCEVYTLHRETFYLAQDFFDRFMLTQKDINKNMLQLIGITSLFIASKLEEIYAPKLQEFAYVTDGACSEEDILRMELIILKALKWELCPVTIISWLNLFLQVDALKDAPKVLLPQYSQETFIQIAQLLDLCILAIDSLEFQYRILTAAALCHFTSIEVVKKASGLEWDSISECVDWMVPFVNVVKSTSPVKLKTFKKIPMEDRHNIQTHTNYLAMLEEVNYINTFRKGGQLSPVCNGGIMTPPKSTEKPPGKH
Chain of CDK3/Cyclin-E2 (Homo sapiens) (Q00526 whole entry, looked up): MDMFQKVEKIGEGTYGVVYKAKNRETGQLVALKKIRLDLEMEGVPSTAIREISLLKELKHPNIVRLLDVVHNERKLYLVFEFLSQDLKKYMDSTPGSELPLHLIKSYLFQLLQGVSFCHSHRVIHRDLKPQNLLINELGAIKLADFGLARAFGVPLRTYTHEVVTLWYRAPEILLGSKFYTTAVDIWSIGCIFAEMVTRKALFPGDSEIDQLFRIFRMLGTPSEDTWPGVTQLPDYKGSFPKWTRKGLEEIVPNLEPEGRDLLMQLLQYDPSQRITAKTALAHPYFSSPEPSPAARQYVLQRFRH
Chain of Myosin light chain kinase family member 4 (Homo sapiens) (Q86YV6 whole entry): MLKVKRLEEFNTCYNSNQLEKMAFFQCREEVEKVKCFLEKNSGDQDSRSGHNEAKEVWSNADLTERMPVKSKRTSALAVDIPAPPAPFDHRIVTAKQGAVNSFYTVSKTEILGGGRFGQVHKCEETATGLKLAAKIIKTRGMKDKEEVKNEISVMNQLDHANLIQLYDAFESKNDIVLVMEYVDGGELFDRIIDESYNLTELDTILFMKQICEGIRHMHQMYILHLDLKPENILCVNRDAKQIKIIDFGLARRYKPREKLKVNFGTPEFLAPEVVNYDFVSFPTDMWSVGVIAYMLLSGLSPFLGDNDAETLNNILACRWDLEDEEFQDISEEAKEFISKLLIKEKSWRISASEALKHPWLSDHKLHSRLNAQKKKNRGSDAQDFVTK

Molecule `COc1ccc(N2C(=O)COc3ccc(-c4cnc(OC)c(NS(=O)(=O)c5ccc(F)cc5)c4)cc32)cc1` has an inhibition [1] of 74.4%, an inhibition [2] of 19.4% and an inhibition [3] of 10.4%. For the same molecule, the inhibition [4] was 18.8%, the inhibition [5] was “Dose-dependent effect” and the inhibition [6] was 5.36%. The inhibition [7] was 16.8%, the inhibition [8] was 7.06% and the inhibition [9] was 10%. The inhibition [10] was -5.81%, the IC50 (HCT-116) was 13.4 µM and the IC50 (MCF7) was 8.26 µM. The inhibition [11] was 8.49%, the inhibition [12] was 4.8% and the inhibition [13] was -7.49%. It also gave an inhibition [14] of -7.96%, an inhibition [15] of 20.4% and an inhibition [16] of 13.9%. It also gave an inhibition [17] of 16%, an inhibition [18] of -9.98% and an inhibition [19] of 7.09%. The inhibition [20] was 4.25%, the inhibition [21] was 4% and the inhibition [22] was 14.4%. For the same molecule, the inhibition (Homo sapiens) was 5.47%, the inhibition [23] was 26.8% and the inhibition [24] was 14.8%. It also gave an inhibition [25] of 0.47%, an inhibition [26] of 3.43% and an IC50 (A549) of 1.35 µM. The IC50 (A-375) was 18.4 µM, the inhibition [27] was 9.78% and the inhibition [28] was 20%.
